Data: ChEMBL document CHEMBL4823291, “Discovery of 5,6,7,8-tetrahydropyrido[3,4-d]pyrimidine derivatives as novel selective Axl inhibitors” (Bioorg Med Chem Lett, 2021)

Legend:
BaF3 = test: Ratio of IC50 for Mer in mouse BaF3 cells to IC50 for Axl in mouse BaF3 cells; assay type: cell-based
Homo sapiens = species: Homo sapiens; test: Ratio of IC50 for Mer (unknown origin) to IC50 for Axl (unknown origin)
[1] = target: T1, Tyrosine-protein kinase receptor UFO (Mus musculus, UniProt Q00993); test: Inhibition of Axl in mouse BaF3 cells; assay type: cell-based
T1 sequence (Q00993 whole entry): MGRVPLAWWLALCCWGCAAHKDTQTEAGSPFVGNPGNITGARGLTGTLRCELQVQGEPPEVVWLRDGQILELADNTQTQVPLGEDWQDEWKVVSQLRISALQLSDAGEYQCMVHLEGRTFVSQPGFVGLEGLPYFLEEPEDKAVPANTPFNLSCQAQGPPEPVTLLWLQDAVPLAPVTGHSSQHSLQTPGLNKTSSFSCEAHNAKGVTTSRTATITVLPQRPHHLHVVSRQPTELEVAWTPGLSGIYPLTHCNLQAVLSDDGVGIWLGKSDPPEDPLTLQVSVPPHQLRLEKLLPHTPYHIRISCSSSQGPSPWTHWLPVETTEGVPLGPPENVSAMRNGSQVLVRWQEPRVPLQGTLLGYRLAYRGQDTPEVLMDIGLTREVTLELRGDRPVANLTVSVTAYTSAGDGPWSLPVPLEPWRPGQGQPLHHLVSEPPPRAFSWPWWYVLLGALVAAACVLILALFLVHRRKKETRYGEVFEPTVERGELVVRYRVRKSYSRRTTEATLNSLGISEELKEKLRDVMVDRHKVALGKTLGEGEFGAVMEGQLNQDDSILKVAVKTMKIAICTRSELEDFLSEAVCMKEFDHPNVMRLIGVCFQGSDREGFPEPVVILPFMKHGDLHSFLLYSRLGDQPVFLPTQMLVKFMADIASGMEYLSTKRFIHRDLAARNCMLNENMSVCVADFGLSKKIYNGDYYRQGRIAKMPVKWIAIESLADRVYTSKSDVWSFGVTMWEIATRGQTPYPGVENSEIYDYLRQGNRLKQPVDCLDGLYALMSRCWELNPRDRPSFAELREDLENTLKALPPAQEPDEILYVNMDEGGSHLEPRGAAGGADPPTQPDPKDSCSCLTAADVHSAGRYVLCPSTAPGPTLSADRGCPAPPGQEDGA

[2] = target: T2, Tyrosine-protein kinase Mer (Homo sapiens, UniProt Q12866); test: Inhibition of Mer (unknown origin) by cell free assay
T2 sequence (Q12866 whole entry): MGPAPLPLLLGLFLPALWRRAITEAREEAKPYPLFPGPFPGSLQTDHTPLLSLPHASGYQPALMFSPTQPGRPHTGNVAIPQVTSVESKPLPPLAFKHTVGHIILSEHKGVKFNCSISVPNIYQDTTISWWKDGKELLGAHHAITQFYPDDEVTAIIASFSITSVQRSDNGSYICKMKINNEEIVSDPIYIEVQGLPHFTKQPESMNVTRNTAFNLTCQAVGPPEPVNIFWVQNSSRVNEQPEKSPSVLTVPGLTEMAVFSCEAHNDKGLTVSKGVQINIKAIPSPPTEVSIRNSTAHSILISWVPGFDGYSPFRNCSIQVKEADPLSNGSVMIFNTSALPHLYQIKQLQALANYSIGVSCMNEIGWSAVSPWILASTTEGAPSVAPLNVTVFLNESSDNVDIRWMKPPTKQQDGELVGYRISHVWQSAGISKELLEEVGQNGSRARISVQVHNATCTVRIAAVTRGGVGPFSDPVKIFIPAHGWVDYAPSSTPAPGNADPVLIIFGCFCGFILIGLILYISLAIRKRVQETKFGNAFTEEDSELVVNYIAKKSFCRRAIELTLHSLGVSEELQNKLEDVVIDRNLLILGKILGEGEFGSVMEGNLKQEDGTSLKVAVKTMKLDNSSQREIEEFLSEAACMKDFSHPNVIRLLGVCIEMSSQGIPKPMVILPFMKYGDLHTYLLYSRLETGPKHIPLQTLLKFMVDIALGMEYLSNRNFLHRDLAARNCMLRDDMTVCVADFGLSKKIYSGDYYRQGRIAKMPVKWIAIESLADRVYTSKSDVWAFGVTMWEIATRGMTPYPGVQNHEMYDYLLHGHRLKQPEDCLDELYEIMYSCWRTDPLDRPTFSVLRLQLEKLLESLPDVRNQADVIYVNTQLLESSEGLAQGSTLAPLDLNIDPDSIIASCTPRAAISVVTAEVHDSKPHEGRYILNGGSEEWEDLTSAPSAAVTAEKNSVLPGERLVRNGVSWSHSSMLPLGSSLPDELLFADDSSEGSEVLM

[3] = target: T3, Tyrosine-protein kinase receptor UFO (Homo sapiens, UniProt P30530); test: Inhibition of Axl (unknown origin) by cell free assay
T3 sequence (P30530 whole entry): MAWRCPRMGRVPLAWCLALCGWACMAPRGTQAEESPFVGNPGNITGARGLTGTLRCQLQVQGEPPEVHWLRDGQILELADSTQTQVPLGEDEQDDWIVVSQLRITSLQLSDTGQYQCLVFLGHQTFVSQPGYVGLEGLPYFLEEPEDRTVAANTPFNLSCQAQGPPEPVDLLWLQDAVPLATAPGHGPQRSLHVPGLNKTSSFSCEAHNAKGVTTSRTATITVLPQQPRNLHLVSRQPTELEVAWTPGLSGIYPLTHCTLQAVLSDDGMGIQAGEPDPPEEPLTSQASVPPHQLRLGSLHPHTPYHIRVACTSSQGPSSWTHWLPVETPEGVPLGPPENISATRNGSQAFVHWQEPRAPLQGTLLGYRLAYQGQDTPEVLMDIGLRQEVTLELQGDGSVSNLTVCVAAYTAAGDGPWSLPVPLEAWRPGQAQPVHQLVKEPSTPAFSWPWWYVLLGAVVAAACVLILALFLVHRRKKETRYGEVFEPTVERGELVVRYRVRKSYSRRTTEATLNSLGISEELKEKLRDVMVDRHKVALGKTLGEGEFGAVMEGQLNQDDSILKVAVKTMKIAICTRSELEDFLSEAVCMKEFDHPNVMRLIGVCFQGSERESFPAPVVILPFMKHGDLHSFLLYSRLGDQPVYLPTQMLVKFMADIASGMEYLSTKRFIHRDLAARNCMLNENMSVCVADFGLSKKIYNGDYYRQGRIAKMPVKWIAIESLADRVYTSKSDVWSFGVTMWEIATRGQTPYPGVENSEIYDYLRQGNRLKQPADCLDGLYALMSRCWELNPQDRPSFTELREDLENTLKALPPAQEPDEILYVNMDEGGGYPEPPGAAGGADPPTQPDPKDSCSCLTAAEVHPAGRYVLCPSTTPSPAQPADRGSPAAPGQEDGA

[4] = target: T4, Tyrosine-protein kinase Mer (Mus musculus, UniProt Q60805); test: Inhibition of Mer in mouse BaF3 cells; assay type: cell-based
T4 sequence (Q60805 whole entry): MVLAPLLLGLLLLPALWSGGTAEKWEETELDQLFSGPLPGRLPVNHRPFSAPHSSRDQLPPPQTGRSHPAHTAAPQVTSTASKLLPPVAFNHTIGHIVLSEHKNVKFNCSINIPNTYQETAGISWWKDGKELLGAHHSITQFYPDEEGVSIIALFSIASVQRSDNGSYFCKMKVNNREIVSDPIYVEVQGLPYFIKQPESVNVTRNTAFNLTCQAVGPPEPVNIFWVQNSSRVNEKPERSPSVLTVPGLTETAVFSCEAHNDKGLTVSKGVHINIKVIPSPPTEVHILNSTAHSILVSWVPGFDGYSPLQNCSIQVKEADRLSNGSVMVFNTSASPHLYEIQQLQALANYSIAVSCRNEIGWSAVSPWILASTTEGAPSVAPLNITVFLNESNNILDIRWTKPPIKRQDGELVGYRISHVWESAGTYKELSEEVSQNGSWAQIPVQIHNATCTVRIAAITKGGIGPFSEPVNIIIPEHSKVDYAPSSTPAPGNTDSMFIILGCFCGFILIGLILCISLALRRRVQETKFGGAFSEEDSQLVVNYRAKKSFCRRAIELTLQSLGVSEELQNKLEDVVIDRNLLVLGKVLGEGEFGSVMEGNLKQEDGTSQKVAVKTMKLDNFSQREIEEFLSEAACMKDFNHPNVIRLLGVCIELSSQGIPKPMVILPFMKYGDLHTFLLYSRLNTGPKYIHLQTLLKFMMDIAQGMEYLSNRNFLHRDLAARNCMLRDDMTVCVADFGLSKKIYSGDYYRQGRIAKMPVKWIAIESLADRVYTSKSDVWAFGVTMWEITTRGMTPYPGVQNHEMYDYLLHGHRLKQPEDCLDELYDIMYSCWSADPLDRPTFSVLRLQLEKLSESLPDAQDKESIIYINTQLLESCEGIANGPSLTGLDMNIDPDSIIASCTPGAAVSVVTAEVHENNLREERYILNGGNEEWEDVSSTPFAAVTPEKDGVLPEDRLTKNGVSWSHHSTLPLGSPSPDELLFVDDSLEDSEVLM

Compound	Ratio IC50 (BaF3)	Ratio IC50 (Homo sapiens)	IC50 [1]	IC50 [2]	IC50 [3]	IC50 [4]
CN1CCC(CN2CCc3c(ncnc3Oc3ccc(NC(=O)c4cn(CC5CC5)c(=O)n(-c5ccc(F)cc5)c4=O)cc3F)C2)CC1	6.1	33	8.4 nM	62 nM	1.9 nM	51 nM
CC(C)n1cc(C(=O)Nc2ccc(Oc3ncnc4c3CCN(CC(=O)N3CCC3)C4)c(F)c2)c(=O)n(-c2ccc(F)cc2)c1=O	5.6	14	66 nM	200 nM	14 nM	370 nM
CN1CCC(CN2CCc3c(ncnc3Oc3ccc(NC(=O)c4cn(CC5CCC5)c(=O)n(-c5ccc(F)cc5)c4=O)cc3F)C2)CC1	8.1	37	16 nM	88 nM	2.4 nM	130 nM
CC(C)n1cc(C(=O)Nc2ccc(Oc3ncnc4c3CCN(C3CN(C)C3)C4)c(F)c2)c(=O)n(-c2ccc(F)cc2)c1=O	4.5	7.1	5.3 nM	27 nM	3.8 nM	24 nM
CN1CCC(CN2CCc3c(ncnc3Oc3ccc(NC(=O)c4cn(C5CC5)c(=O)n(-c5ccc(F)cc5)c4=O)cc3F)C2)CC1	5.3	26	770 nM	830 nM	32 nM	4110 nM
CC(C)n1cc(C(=O)Nc2ccc(Oc3ncnc4c3CC(=O)N4)c(F)c2)c(=O)n(-c2ccc(F)cc2)c1=O	2.9	2.9	84 nM	76 nM	26 nM	280 nM
CC(C)n1cc(C(=O)Nc2ccc(Oc3ncnc4c3CCN(C(=O)CN3CCOCC3)C4)c(F)c2)c(=O)n(-c2ccc(F)cc2)c1=O	7	10	130 nM	170 nM	17 nM	910 nM
CC(C)n1cc(C(=O)Nc2ccc(Oc3ncnc4c3CN(C(=O)CC3CCN(C)CC3)C4)c(F)c2)c(=O)n(-c2ccc(F)cc2)c1=O	2.3	< 1.2	17 nM	< 4.1 nM	3.4 nM	39 nM
CC(C)n1cc(C(=O)Nc2ccc(Oc3ncnc4c3CCN(C(=O)CC3CCN(C)CC3)C4)c(F)c2)c(=O)n(-c2ccc(F)cc2)c1=O	5.2	20	29 nM	88 nM	4.3 nM	150 nM
CC(C)n1cc(C(=O)Nc2ccc(Oc3ncnc4c3CN(CC3CCOCC3)C4)c(F)c2)c(=O)n(-c2ccc(F)cc2)c1=O	2.6	4	93 nM	34 nM	8.6 nM	240 nM
CC(C)n1cc(C(=O)Nc2ccc(Oc3ncnc4c3CCN(C(=O)C3CCN(C)CC3)C4)c(F)c2)c(=O)n(-c2ccc(F)cc2)c1=O	5.3	42	120 nM	500 nM	12 nM	630 nM
CC(C)n1cc(C(=O)Nc2ccc(Oc3ncnc4c3CCN(CC3CCN(C)CC3)C4)c(F)c2)c(=O)n(-c2ccc(F)cc2)c1=O	5.2	20	15 nM	74 nM	3.7 nM	78 nM
Cc1ccc(-n2c(=O)c(C(=O)Nc3ccc(Oc4ncnc5c4CCN(CC4CCN(C)CC4)C5)c(F)c3)cn(CC3CC3)c2=O)nc1	6.2	51	34 nM	270 nM	5.3 nM	210 nM
CC(C)n1cc(C(=O)Nc2ccc(Oc3ncnc4c3CCN(C3CCN(C)CC3)C4)c(F)c2)c(=O)n(-c2ccc(F)cc2)c1=O	4.2	5.5	13 nM	31 nM	5.6 nM	55 nM
CN1CCC(CN2CCc3c(ncnc3Oc3ccc(NC(=O)c4cn(CCF)c(=O)n(-c5ccc(F)cc5)c4=O)cc3F)C2)CC1	2.7	18	49 nM	150 nM	8.5 nM	130 nM
